# Assay results published in PubChem BioAssay (NCI).
#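 The compound was tested at five concentrations on cells cultured in 96-well plates, with a 48-hour exposure period. GI50: concentration for 50% inhibition of growth. TGI: total growth inhibition.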
# Legend:
# Experiment in all cases: DTP human tumour cell line panel, 48 h
# A498 renal = system: A498 renal
# 786-0 renal = system: 786-0 renal
# OVCAR-5 ovarian = system: OVCAR-5 ovarian
# UACC-62 melanoma = system: UACC-62 melanoma
# NCI-H226 lung = system: NCI-H226 lung
# SF-539 CNS = system: SF-539 CNS
# OVCAR-8 ovarian = system: OVCAR-8 ovarian
# KM12 colon = system: KM12 colon
# SK-MEL-28 melanoma = system: SK-MEL-28 melanoma
# COLO 205 colon = system: COLO 205 colon
Structure (SMILES),TGI (A498 renal),TGI (786-0 renal),TGI (OVCAR-5 ovarian),TGI (UACC-62 melanoma),TGI (NCI-H226 lung),TGI (SF-539 CNS),TGI (OVCAR-8 ovarian),TGI (KM12 colon),TGI (SK-MEL-28 melanoma),TGI (COLO 205 colon),GI50 (A498 renal),GI50 (786-0 renal),GI50 (OVCAR-5 ovarian),GI50 (UACC-62 melanoma),GI50 (COLO 205 colon),GI50 (NCI-H226 lung),GI50 (SF-539 CNS),GI50 (OVCAR-8 ovarian),GI50 (SK-MEL-28 melanoma),GI50 (KM12 colon)
O=C(Nc1nc2ncn(CC(COc3ccccc3)OC(=O)c3ccccc3)c2c(=O)[nH]1)c1ccccc1 (centres undefined),> 100 µM,> 100 µM,> 100 µM,> 100 µM,> 100 µM,> 100 µM,> 100 µM,> 100 µM,> 100 µM,,,,,,,,,,,
c1ccc(CN(Cn2cccn2)Cn2cccn2)nc1,> 100 µM,> 100 µM,,> 100 µM,,,> 100 µM,> 100 µM,> 100 µM,> 100 µM,,,,,,,,,,
CCCc1nc2c(C)cc(-c3nc4ccccc4n3C)cc2n1Cc1ccc(-c2ccccc2C(=O)O)cc1,> 100 µM,> 100 µM,> 100 µM,> 100 µM,> 100 µM,> 100 µM,> 100 µM,,> 100 µM,> 100 µM,20.4 µM,41.4 µM,> 100 µM,22.4 µM,42.4 µM,32.4 µM,46.5 µM,35.4 µM,25.7 µM,
O=C(NO)C12C3C4C1C1C2C3C41C(=O)NO (centres undefined),> 100 µM,> 100 µM,> 100 µM,> 100 µM,> 100 µM,> 100 µM,> 100 µM,> 100 µM,> 100 µM,> 100 µM,,,,,,,,,,
COc1ccc([N+](=O)[O-])c(S(=O)(=O)c2ccc(Cl)cc2)n1,,7.18 µM,12.3 µM,13.3 µM,36 µM,12.3 µM,15.9 µM,27.8 µM,14.2 µM,3.88 µM,,2.51 µM,3.13 µM,3.56 µM,1.96 µM,10.2 µM,3.39 µM,3.67 µM,3.57 µM,14 µM
O=c1cnn2c(n1)sc1ccc3ccccc3c12,,> 100 µM,> 100 µM,> 100 µM,> 100 µM,> 100 µM,> 100 µM,> 100 µM,> 100 µM,> 100 µM,,,,,,,,,,
Cc1ccccc1CN1CC=c2ccccc2=N1,> 100 µM,> 100 µM,> 100 µM,> 100 µM,> 100 µM,> 100 µM,> 100 µM,> 100 µM,> 100 µM,> 100 µM,,,,,,,,,,
COc1cc(-n2cc(-c3ccc(Cl)cc3)[nH]c2=O)cc(OC)c1OC,44.8 µM,35.3 µM,54.1 µM,64.1 µM,83.3 µM,49.2 µM,68.9 µM,> 100 µM,> 100 µM,> 100 µM,19.8 µM,15.2 µM,22.7 µM,23 µM,> 100 µM,33.2 µM,23.8 µM,26.5 µM,> 100 µM,41.3 µM
COC(=O)CCC/C=C\C[C@H]1C=CC(=O)/C1=C/C[C@@H](O)C/C=C\CC(F)(F)F,4.57 µM,3.57 µM,9.65 µM,3.64 µM,4.1 µM,9.09 µM,13.4 µM,5.65 µM,4.77 µM,4.58 µM,2.47 µM,1.85 µM,3.42 µM,1.2 µM,2.03 µM,2.08 µM,3.24 µM,3.3 µM,2.08 µM,1.97 µM
CSc1nc2sc3cc(Cl)ccc3n2c(=N)c1C#N,> 100 µM,24 µM,> 100 µM,> 100 µM,> 100 µM,> 100 µM,> 100 µM,> 72 µM,> 100 µM,> 100 µM,29.6 µM,6.15 µM,> 62.7 µM,17.7 µM,3.33 µM,12.8 µM,15.2 µM,17.4 µM,11.6 µM,3.78 µM
Cc1cc(Cl)ccc1N=C1NC(=O)C(CC(=O)Nc2ccc(Cl)cc2Cl)S1 (centres undefined),,> 100 µM,> 100 µM,> 100 µM,,> 100 µM,> 100 µM,> 100 µM,> 100 µM,> 100 µM,,,,,,,,,,
COc1ccc(C2=NN(C(C)=O)C(c3cn(-c4ccccc4)nc3-c3ccc(Cl)cc3)C2)cc1 (centres undefined),> 100 µM,> 100 µM,> 100 µM,> 100 µM,> 100 µM,> 100 µM,,> 100 µM,> 100 µM,> 100 µM,99.5 µM,30.7 µM,> 100 µM,> 100 µM,> 100 µM,> 100 µM,25.4 µM,,> 100 µM,> 100 µM
CC(C)(C)c1ccc(C(O)c2ccc(C(C)(C)C)cc2)cc1,32.9 µM,29 µM,30.5 µM,30.2 µM,19.5 µM,31.5 µM,29.2 µM,29.1 µM,30.8 µM,26.7 µM,,,,,,,,,,
CC1C=CC(=O)C(n2cc(F)c(=O)[nH]c2=O)O1 (centres undefined),,31.3 µM,,31.7 µM,,31.2 µM,65.4 µM,,46.8 µM,35.9 µM,,,,,,,,,,
Nc1ccn(C2CC(CO)C(O)C2O)c(=O)n1 (centres undefined),> 57.7 µM,> 57.7 µM,,> 57.7 µM,> 57.7 µM,> 57.7 µM,> 57.7 µM,> 57.7 µM,> 57.7 µM,> 57.7 µM,,,,,,,,,,
NCCNC(=S)S,> 100 µM,> 100 µM,> 100 µM,> 100 µM,> 100 µM,,> 100 µM,> 100 µM,> 100 µM,> 100 µM,,,,,,,,,,
Cc1[nH]c(=O)[nH]c(=O)c1CO,> 100 µM,> 100 µM,> 100 µM,> 100 µM,,> 100 µM,> 100 µM,> 100 µM,> 100 µM,> 100 µM,> 100 µM,> 100 µM,> 100 µM,> 100 µM,> 100 µM,,> 100 µM,> 100 µM,> 100 µM,> 100 µM
